Several values for one entry are separate records, joined by “and”; a condition that tells them apart may be missing. Equal entries are not always repeated. Where two headings read alike, the source gives them in different places. Values belong to the molecule of their own block, whether it stands above or below them.
Assays:
[1] = stability in 0.1M phosphate buffer via HPLC; format: physicochemical
Method: In addition, the stability of representative compounds was tested, via HPLC, in 0.1M phosphate buffer (pH 7.4, 37° C.).

[2] = test system: lymphocyte proliferation (LAF); cells from the thymus of normal BALB/c mice; experiment: comitogen-induced thymocyte proliferation procedure (LAF); format: cell-based; details: read-out: LAF IC50
Method: The immunosuppressive activities for representative compounds of this invention were evaluated in an in vitro standard pharmacological test procedure to measure lymphocyte proliferation (LAF) and in an in vivo standard pharmacological test procedure which evaluated the survival time of pinch skin grafts. […] Cells are harvested and incorporated radioactivity is determined. Inhibition of lymphoproliferation is assessed as percent change in counts per minute from non-drug treated controls. The results are expressed as an IC50.

[3] = test system: pinch skin graft from male DBA/2 donors transplanted to male BALB/c recipients; experiment: survival time of pinch skin graft; format: in vivo, mice; details: for Skin Graft (days), mean graft survival time: intraperitoneally, ± S.D.
Method: Representative compounds of this invention were also evaluated in an in vivo test procedure designed to determine the survival time of pinch skin graft from male DBA/2 donors transplanted to male BALB/c recipients. The method is adapted from Billingham R. E. and Medawar P. B., J. Exp. Biol. 28:385-402, (1951). Briefly, a pinch skin graft from the donor is grafted on the dorsum of the recipient as a homograft, and an autograft is used as control in the same region. The recipients are treated with either varying concentrations of cyclosporin A as test control or the test compounds, intraperitoneally. Untreated recipients serve as rejection control. The graft is monitored daily and observations are recorded until the graft becomes dry and forms a blackened scab. This is considered as the rejection day. The mean graft survival time (number of days±S.D.) of the drug treatment group is compared with the control group.

[4] = test system: insulin dependent diabetes mellitus; details: cited from earlier work
[5] = test system: adjuvant arthritis model, a model for rheumatoid arthritis; details: cited from earlier work
[6] = test system: experimental allergic encephalomyelitis model, a model for multiple sclerosis; details: cited from earlier work
[7] = test system: formation of IgE-like antibodies; details: cited from earlier work
[8] = alone or in combination with picibanil; cited from earlier work
[9] = test system: systemic lupus erythematosus; details: cited from earlier work
Candida albicans = details: particularly against Candida albicans, both in vitro and in vivo; cited from earlier work
[10] = test system: smooth muscle cell proliferation and intimal thickening following vascular injury; details: cited from earlier work
[11] = 0.1m phosphate buffer, pH 7.4 buffer, 0.1M phosphate, 37° C., read-out: Stability (converted)
[12] = BALB/c mouse thymocytes, PHA and IL-1, 72 hours

half-life [1, 11]: 13.5 h
Structure (SMILES): COC1CC2CCC(C)C(O)(O2)C(=O)C(=O)N2CCCCC2(C)C(=O)OC(C(C)CC2CCC(OC(=O)CN(C)C)C(OC)C2)CC(=O)C(C)C=C(C)C(O)C(OC)C(=O)C(C)CC(C)C=CC=CC=C1C (stereo not shown) [C-22-methyl-42-dimethylglycine-rapamycin, C-22-methyl-42-dimethylglycine rapamycin]
IC50 [2, 12]: 19.9 nM

Structure (SMILES): CO[C@H]1C[C@@H]2CC[C@@H](C)[C@@](O)(O2)C(=O)C(=O)N2CCCC[C@H]2C(=O)O[C@H]([C@H](C)C[C@@H]2CC[C@@H](O)[C@H](OC)C2)CC(=O)[C@H](C)/C=C(\C)[C@@H](O)[C@@H](OC)C(=O)[C@H](C)C[C@H](C)/C=C/C=C/C=C/1C [rapamycin]
Skin Graft (days), mean graft survival time ([3]; 4 mg/kg): 12.01 ± 0.26 days
effect in insulin dependent diabetes mellitus [4]: useful in preventing or treating
effect in adjuvant arthritis model [5]: effective
effect in experimental allergic encephalomyelitis model [6]: effective
inhibition of formation of IgE-like antibodies [7]: effectively inhibited
half life in stability test ([1]; 0.1M phosphate buffer, pH 7.4, 37° C.): 12 to 13 h
half-life [1, 11]: 12 to 13 h
antitumor activity [8]: antitumor activity
IC50 ([2]; Mus musculus, 72 h): 0.4 to 9.4 nM
effect in systemic lupus erythematosus [9]: useful in preventing or treating
antifungal activity (Candida albicans): antifungal activity, particularly against Candida albicans, both in vitro and in vivo
effect on smooth muscle cell proliferation and intimal thickening [10]: useful in preventing or treating

Structure (SMILES): CCC12CCCCN1C(=O)C(=O)[C@]1(O)O[C@@H](CC[C@H]1C)C[C@H](OC)/C(C)=C/C=C/C=C/[C@@H](C)C[C@@H](C)C(=O)[C@H](OC)[C@H](O)/C(C)=C/[C@@H](C)C(=O)C[C@@H]([C@H](C)C[C@@H]1CC[C@@H](O)[C@H](OC)C1)OC2=O (stereo partly shown) [22-ethyl-rapamycin, C-22-ethyl-rapamycin]
IC50 [2, 12]: 140 nM

Structure (SMILES): CO[C@H]1C[C@@H]2CC[C@@H](C)[C@@](O)(O2)C(=O)C(=O)N2CCCCC2(C)C(=O)O[C@H]([C@H](C)C[C@@H]2CC[C@@H](O)[C@H](OC)C2)CC(=O)[C@H](C)/C=C(\C)[C@@H](O)[C@@H](OC)C(=O)[C@H](C)C[C@H](C)/C=C/C=C/C=C/1C (stereo partly shown) [22-methyl-rapamycin, C-22-methyl-rapamycin]
Skin Graft (days), mean graft survival time ([3]; 4 mg/kg): 9.33 ± 0.52 days and 9.00 ± 0.63 days
Skin Graft (days), mean graft survival time ([3]; *tested at 16 mg/kg): 10.17 ± 0.55 days
graft survival time (in words) ([3]; relative to grafts without immunosuppressive agent (rejected within 6-7 days)): increased survival time
half-life ([1]; 0.1M phosphate buffer, pH 7.4, 37° C., read-out: half life in stability test (converted)): 38 h
IC50 [2, 12]: 23.5 nM

half-life ([1]; 0.1m phosphate buffer, pH 7.4): 21.8 h
Structure (SMILES): CO[C@H]1C[C@@H]2CC[C@@H](C)[C@@](O)(O2)C(=O)C(=O)N2CCCCC2(C)C(=O)O[C@H]([C@H](C)C[C@@H]2CC[C@@H](O)[C@H](OC)C2)CC(O)[C@H](C)/C=C(\C)[C@@H](O)[C@@H](OC)C(=O)[C@H](C)C[C@H](C)/C=C/C=C/C=C/1C (stereo partly shown) [22-methyl-27-hydroxyrapamycin, C-22-methyl-C-27-hydroxy-rapamycin]
IC50 [2, 12]: 9.9 nM
